Results: ChEMBL document CHEMBL4819019, “Design, synthesis, antibacterial activity and toxicity of novel quaternary ammonium compounds based on pyridoxine and fatty acids” (Eur J Med Chem, 2021)

Legend:
[1] = Genotoxicity in Salmonella typhimurium TA1535/pSK1002 assessed as DNA-damage activity by measuring beta-galactosidase activity at 7.5 ug/ml measured by SOS-chromotest relative to solvent control; type: toxicity; conditions: salmonella enterica subsp. enterica serovar typhimurium; dose 7.5 µg/ml
Klebsiella pneumoniae = test: Antibacterial activity against clinical isolate Klebsiella pneumoniae 1813 measured after 24 hrs by broth microdilution method; type: functional
Pseudomonas aeruginosa [2] = test: Antibacterial activity against clinical isolate Pseudomonas aeruginosa 1945 measured after 24 hrs by broth microdilution method; type: functional
[3] = Lipophilicity, logP of the compound; type: physicochemical; conditions: octanol/water
Proteus sp. = test: Antibacterial activity against clinical isolate Proteus sp. 17 measured after 24 hrs by broth microdilution method; type: functional; conditions: Proteus sp. (in: enterobacteria)
Staphylococcus aureus [4] = test: Antibacterial activity against clinical isolate methicillin-resistant Staphylococcus aureus 713 measured after 24 hrs by broth microdilution method; type: functional
[5] = tested on: Staphylococcus ureilyticus; test: Antibacterial activity against clinical isolate Staphylococcus ureilyticus 1972 measured after 24 hrs by broth microdilution method; type: functional
[6] = Genotoxicity in Salmonella typhimurium TA100 assessed as number of revertant by Ames spot test relative to solvent control; type: toxicity; conditions: salmonella enterica subsp. enterica serovar typhimurium
Staphylococcus aureus [7] = test: Antibacterial activity against clinical isolate Staphylococcus aureus 25 measured after 24 hrs by broth microdilution method; type: functional
[8] = Cytotoxicity against human HEK293 cells assessed as cell viability measured after 72 hrs by MTT assay; type: cell-based
Bacillus subtilis = test: Antibacterial activity against Bacillus subtilis 168 measured after 24 hrs by broth microdilution method; type: functional
Enterococcus faecalis [9] = test: Antibacterial activity against clinical isolate Enterococcus faecalis 23 measured after 24 hrs by broth microdilution method; type: functional
[10] = Genotoxicity in Salmonella typhimurium TA1535/pSK1002 assessed as DNA-damage activity by measuring beta-galactosidase activity at 150 ug/ml measured by SOS-chromotest relative to solvent control; type: toxicity; conditions: salmonella enterica subsp. enterica serovar typhimurium; dose 150 µg/ml
Staphylococcus aureus [11] = test: Antibacterial activity against Staphylococcus aureus ATCC 29213 measured after 24 hrs by broth microdilution method; type: functional
[12] = tested on: Staphylococcus intermedius; test: Antibacterial activity against clinical isolate methicillin-resistant Staphylococcus intermedius 1143 measured after 24 hrs by broth microdilution method; type: functional
[13] = Genotoxicity in Salmonella typhimurium TA1535 assessed as number of revertant by Ames spot test relative to solvent control; type: toxicity; conditions: salmonella enterica subsp. enterica serovar typhimurium
[14] = Genotoxicity in Salmonella typhimurium TA1535/pSK1002 assessed as DNA-damage activity by measuring beta-galactosidase activity at 15 ug/ml measured by SOS-chromotest relative to solvent control; type: toxicity; conditions: salmonella enterica subsp. enterica serovar typhimurium; dose 15 µg/ml
Moraxella = test: Antibacterial activity against clinical isolate Moraxella 765 measured after 24 hrs by broth microdilution method; type: functional
Pseudomonas sp. = test: Antibacterial activity against clinical isolate Pseudomonas sp. 5 measured after 24 hrs by broth microdilution method; type: functional
Staphylococcus aureus [15] = test: Antibacterial activity against clinical isolate methicillin-resistant Staphylococcus aureus 1065 measured after 24 hrs by broth microdilution method; type: functional
Serratia marcescens = test: Antibacterial activity against clinical isolate Serratia marcescens 1966 measured after 24 hrs by broth microdilution method; type: functional
[16] = Genotoxicity in Salmonella typhimurium TA1535/pSK1002 assessed as DNA-damage activity by measuring beta-galactosidase activity at 75 ug/ml measured by SOS-chromotest relative to solvent control; type: toxicity; conditions: salmonella enterica subsp. enterica serovar typhimurium; dose 75 µg/ml
Pseudomonas aeruginosa [17] = test: Antibacterial activity against Pseudomonas aeruginosa ATCC 27853 measured after 24 hrs by broth microdilution method; type: functional
[18] = Cytotoxicity against human skin fibroblasts assessed as cell viability measured after 72 hrs by MTT assay; type: cell-based, Fibroblast
Micrococcus luteus = test: Antibacterial activity against Micrococcus luteus clinical isolate measured after 24 hrs by broth microdilution method; type: functional
Staphylococcus aureus [19] = test: Antibacterial activity against clinical isolate methicillin-resistant Staphylococcus aureus 1053 measured after 24 hrs by broth microdilution method; type: functional
Escherichia coli [20] = test: Antibacterial activity against clinical isolate Escherichia coli 718 measured after 24 hrs by broth microdilution method; type: functional
[21] = tested on: Staphylococcus intermedius; test: Antibacterial activity against clinical isolate methicillin-resistant Staphylococcus intermedius 1061 measured after 24 hrs by broth microdilution method; type: functional
[22] = Genotoxicity in Salmonella typhimurium TA1535/pSK1002 assessed as DNA-damage activity by measuring beta-galactosidase activity at 750 ug/ml measured by SOS-chromotest relative to solvent control; type: toxicity; conditions: salmonella enterica subsp. enterica serovar typhimurium; dose 750 µg/ml
Staphylococcus aureus [23] = test: Antibacterial activity against clinical isolate methicillin-resistant Staphylococcus aureus 983 measured after 24 hrs by broth microdilution method; type: functional
[24] = Genotoxicity in Salmonella typhimurium TA1537 assessed as number of revertant by Ames spot test relative to solvent control; type: toxicity; conditions: salmonella enterica subsp. enterica serovar typhimurium
Staphylococcus aureus [25] = test: Antibacterial activity against clinical isolate methicillin-resistant Staphylococcus aureus 1131 measured after 24 hrs by broth microdilution method; type: functional
[26] = Cytotoxicity against human mesenchymal stem cells assessed as cell viability measured after 72 hrs by MTT assay; type: cell-based
[27] = Genotoxicity in Salmonella typhimurium TA98 assessed as number of revertant by Ames spot test relative to solvent control; type: toxicity; conditions: salmonella enterica subsp. enterica serovar typhimurium
Klebsiella sp. = test: Antibacterial activity against clinical isolate Klebsiella sp. 11 measured after 24 hrs by broth microdilution method; type: functional
Escherichia coli [28] = test: Antibacterial activity against Escherichia coli MG 1655 measured after 24 hrs by broth microdilution method; type: functional
Acinetobacter sp. = test: Antibacterial activity against clinical isolate Acinetobacter sp. 3 measured after 24 hrs by broth microdilution method; type: functional
Enterococcus faecalis [29] = test: Antibacterial activity against clinical isolate Enterococcus faecalis 3063 measured after 24 hrs by broth microdilution method; type: functional

| Structure (SMILES) | MIC (Klebsiella pneumoniae) [µg/mL] | MIC (Pseudomonas aeruginosa [2]) [µg/mL] | logP [3] | MIC (Proteus sp.) [µg/mL] | MIC (Staphylococcus aureus [4]) [µg/mL] | MIC [5] [µg/mL] | MIC (Staphylococcus aureus [7]) [µg/mL] | MIC (Bacillus subtilis) [µg/mL] | MIC (Enterococcus faecalis [9]) [µg/mL] | MIC (Staphylococcus aureus [11]) [µg/mL] | MIC [12] [µg/mL] | MIC (Moraxella) [µg/mL] | MIC (Pseudomonas sp.) [µg/mL] | MIC (Staphylococcus aureus [15]) [µg/mL] | MIC (Serratia marcescens) [µg/mL] | MIC (Pseudomonas aeruginosa [17]) [µg/mL] | MIC (Micrococcus luteus) [µg/mL] | MIC (Staphylococcus aureus [19]) [µg/mL] | MIC (Escherichia coli [20]) [µg/mL] | MIC [21] [µg/mL] | further results |
| --- | --- | --- | --- | --- | --- | --- | --- | --- | --- | --- | --- | --- | --- | --- | --- | --- | --- | --- | --- | --- | --- |
| CCCCCCCCCCCCCC(=O)NCC[N+](C)(C)Cc1cnc(C)c2c1COC(C)(CCC)O2.[Cl-] (stereo not given) | 8 | 64 | 2.24 | > 64 | 2 | > 64 | 2 | 2 | 1 | 1 | 2 | 16 | 32 | 2 | 64 | 8 | 1 | 1 | 8 | 2 | Ratio [1]: 1.5; Ratio [6]: 0.7; CC50 at 72 h [8]: 1.16 µg/mL; Ratio [10]: 0.5; Ratio [13]: 0.5; Ratio [14]: 1.6; Ratio [16]: 0.9; CC50 at 72 h [18]: 2.15 µg/mL; Ratio [22]: 0.3; MIC (Staphylococcus aureus [23]): 16 µg/mL; Ratio [24]: 0.03; MIC (Staphylococcus aureus [25]): 2 µg/mL; CC50 at 72 h [26]: 1.38 µg/mL; Ratio [27]: 4.4; MIC (Klebsiella sp.): 32 µg/mL; MIC (Escherichia coli [28]): 32 µg/mL; MIC (Acinetobacter sp.): 32 µg/mL; MIC (Enterococcus faecalis [29]): 1 µg/mL |
| CCCCCCCCCCCCCC(=O)OCC[N+](C)(C)Cc1nc(C)c2c(c1CO)COC(C)(C)O2.[Cl-] | 2 | 64 | 1.46 | > 64 | 2 | > 64 | 2 | 0.5 | 2 | 1 | 4 | 64 | 64 | 4 | > 64 | > 64 | 1 | 2 | 32 | 4 | Ratio [1]: 1.8; Ratio [6]: 2.1; CC50 at 72 h [8]: 0.88 µg/mL; Ratio [10]: 0.9; Ratio [13]: 0.4; Ratio [14]: 1.6; Ratio [16]: 1.2; CC50 at 72 h [18]: 2.24 µg/mL; Ratio [22]: 0.3; MIC (Staphylococcus aureus [23]): 32 µg/mL; Ratio [24]: 0.05; MIC (Staphylococcus aureus [25]): 4 µg/mL; CC50 at 72 h [26]: 1.02 µg/mL; Ratio [27]: 2.5; MIC (Klebsiella sp.): 64 µg/mL; MIC (Escherichia coli [28]): 32 µg/mL; MIC (Acinetobacter sp.): 64 µg/mL; MIC (Enterococcus faecalis [29]): 2 µg/mL |
| CCCCCCCCCCCCCC(=O)OCC[N+](C)(C)Cc1cnc(C)c2c1COC(CCC)O2.[Cl-] (stereo not given) | 64 | > 64 | 2.97 | > 64 | 2 | > 64 | 2 | 4 | 4 | 0.5 | 4 | 64 | 64 | 2 | > 64 | 1 | 0.5 | 2 | 32 | 2 | Ratio [1]: 1.4; Ratio [6]: 1.2; CC50 at 72 h [8]: 1 µg/mL; Ratio [10]: 1.3; Ratio [13]: 0.4; Ratio [14]: 1.5; Ratio [16]: 1.5; CC50 at 72 h [18]: 2.18 µg/mL; Ratio [22]: 0.3; MIC (Staphylococcus aureus [23]): 64 µg/mL; Ratio [24]: 0.04; MIC (Staphylococcus aureus [25]): 4 µg/mL; CC50 at 72 h [26]: 1.28 µg/mL; Ratio [27]: 4.7; MIC (Klebsiella sp.): 32 µg/mL; MIC (Escherichia coli [28]): 16 µg/mL; MIC (Acinetobacter sp.): 64 µg/mL; MIC (Enterococcus faecalis [29]): 4 µg/mL |
| CCCCCCCCCCCCCCCCCC(=O)NCCC[N+](C)(C)Cc1cnc(C)c2c1COC(C)(C)O2.[Cl-] | > 64 | > 64 | 3.25 | > 64 | 16 | > 64 | 8 | 8 | 4 | 4 | 16 | > 64 | 64 | 8 | > 64 | 8 | 4 | 8 | > 64 | 8 | MIC (Staphylococcus aureus [23]): 64 µg/mL; MIC (Staphylococcus aureus [25]): 16 µg/mL; MIC (Klebsiella sp.): 64 µg/mL; MIC (Escherichia coli [28]): > 64 µg/mL; MIC (Acinetobacter sp.): 64 µg/mL; MIC (Enterococcus faecalis [29]): 4 µg/mL |
